# From US9655965B2, “Radiosensitizer compounds for use in combination with radiation” (priority 2013, dated 2017)
# Entries after “also recorded” stand apart in the source; their conditions may differ.
# What was measured:
# [1] = system: human normal cells (GM05757); test: In vitro toxicity in human normal cells, 72-hr treatment, MTT assay; assay type: cell-based; conditions: GM05757, 72-hr treatment, without ionizing radiation, 0-50 μM cisplatin, 0-200 μM compounds
# Description: Dibromo-diamino-benzene (Dibromo-phenylenediamine, Compound B) was obtained from TCI-America. Diiodo-diaminobenzene (Compound C) were synthesized, purified and crystallized in our laboratory, and the structures and purity were examined by NMR and mass spectrometry. MEM and fetal bovine serum (FBS), penicillin G and streptomycin were obtained from Hyclone Laboratories (UT, USA). Stock solution of cisplatin was freshly prepared in ultrapure water or saline, and stock solutions of Compounds A, B, C, D were prepared in pure ethanol, where the final concentration of ethanol was ≦1% when treated to cells.
# A human skin diploid fibroblast (GM05757 cell line) was obtained from the Coriell Cell Repository directly. Fetal bovine serum (FBS) was obtained from Hyclone Laboratories (UT, USA). The GM05757 normal cells were cultivated with MEM (Hyclone) supplemented with 10% FBS, 100 units/mL penicillin G and 100 μg/mL streptomycin (Hyclone). The cells were maintained at 37° C. in a humidified atmosphere containing 5% CO2.
# The radiosensitizing effects of RSCs on cell viability were determined by the 3-[4,5-dimethylthiazol-2-yl]-2,5-diphenyl tetrazoliumbromide (MTT) assay. Cells were cultured in 96-well plates (5×10^3 cells/well) for 24 h. The culture medium was replaced by fresh culture medium and incubated for 72 h with varying drug concentrations. The MTT assay of cell viability was then conducted. Briefly, 100 μl new medium without phenol red containing 1.2 mM MTT (sigma) (i.e., adding 10 μl 12 mM MTT stock solution in PBS) were added to each well and incubated for 4 h. The medium was then removed, and the formazan crystals solubilized by 100 μL/well DMSO (or alternatively by 100 μl/well SDS and incubated for another 4 h). The surviving fraction was determined by measuring the absorbance at 540 nm (570 nm for SDS solubilization) using a Multiskan Spectrum UV/Vis microplate reader (Thermo Scientific), which is directly proportional to the number of viable cells.
# [2] = In vivo pharmacokinetics of Compound B in SCID mice
# Description: Blood samples were collected from the saphenous vein of mice at various time points after IP injection of the compound into the mice and then analyzed using HPLC-Mass Spectrometry.
# [3] = system: human cervical cancer (ME-180) xenograft; test: Xenograft mouse tumor model of human cervical cancer (ME-180) in female SCID mice; assay type: in vivo
# Experimental: The four groups in the experiment were: (1) control article (5% EtOH/medium); (2) 15 Gy X-ray irradiation; (3) Compound B at 7 mg/kg in 5% EtOH/medium and (4) Compound B at 7 mg/kg in 5% EtOH/medium plus 15 Gy X-ray irradiation, as shown in Table 2.
# ME-180 (human cervical cancer) cells were cultured in the ATCC-formulated McCoy's 5 A Medium supplemented with 10% FBS. The cells in a flask were maintained at 37° C. in a humidified atmosphere containing 5% CO2. The cells were rinsed with PBS, trypsined for detachment from the bottom of the flask, mixed with fresh growth medium, and centrifuged to remove the supernatant. The cells were re-suspend with fresh medium to appropriate concentration for inoculation. Injection volume was 50 μl (1×10^6 cells) per animal.
# ME-180 tumour cells were implanted subcutaneously into female SCID mice (age 6-8 weeks) in a volume of 50 μL into the left gastrocneumius muscle using a 27-gauge needle. This was established as a subcutaneous (SC) xenograft mouse model of human cervical cancer.
# Mice were individually weighed and injected intraperitoneally according to body weight for an injection concentration as outlined in the study group table above. The injection volume was based on 200 μL per 20 g mouse. The skin surface was wiped down with 70% isopropyl alcohol to clean the injection site. Radiation was given using X-rad 225 targeted irradiator to the tumors.
# Tumor size was measured as a function of time to assess tumor growth delay associated with treatment using slide caliper and […]. Animals were also weighed at the time of tumour measurement. Tumours in mice were allowed to grow to a maximum of 1000 mm^3 before termination.
smiles,measurement,setting,value
"Nc1cc(Br)c(Br)cc1N [Compound B, 4,5-dibromo-1,2-phenylenediamine]",toxicity toward human normal cells,[1],essentially no toxicity; also recorded: little toxicity up to 200 μM
same,detection of compound in blood/plasma,[2]; after IP injection,significant levels; also recorded: detected in the plasma
same,elimination from the body,[2]; after IP injection,well expelled from the body within a few hours
same,time of highest concentration after i.p. injection,"[2]; plasma/blood, IP 0-7 mg/kg, HPLC-Mass Spectrometry",about 20 minutes
same,time at which concentration dropped to nearly zero,"[2]; plasma/blood, after i.p. injection",about 3 hr
same,suppression of tumor growth,"[3]; 7 mg/kg IP 1 hr prior to 15 Gy 225 keV x-ray, versus radiation or compound only",significantly enhanced the suppression of tumor growth
same,tumor growth delay,"[3]; 7 mg/kg plus 15 Gy x-ray, single doses",very significant tumor growth delay in vivo till 21 days
same,shrinkage of the tumor,"[3]; 7 mg/kg plus 15 Gy x-ray, tumor volumes and MRI, Day 21",significant shrinkage of the tumor in mice; also recorded: most significant shrinkage of the tumor in mice
